Reference: US20040143009A1, “Amines, uses thereof” (L'OREAL, priority 2002, published 2004)

Assays:
[1] = tested on: rat-isolated phrenic nerve/diaphragm (striated muscle) preparation; experiment: Nerve/muscle (motor plate) junction model, isolated phrenic nerve/diaphragm preparation; conditions: at 10^-4 M
Procedure: Compound 1 was tested on a nerve/muscle (motor plate) junction model obtained in a rat-isolated phrenic nerve/diaphragm (striated muscle) preparation (Pollard B. J. et al., Br. J. Anaesth., 1988, 61, 419-424).
(§1) This test is predictive of an antiwrinkle effect, as was verified by the applicant on diazepam, which is both active in vivo in humans and in this test at 10^−4 M.
The phrenic nerve and the diaphragm are carefully isolated and placed in a 50 ml tank filled with survival fluid (Krebs Henseleit fluid) kept at a temperature of 37° C. and oxygenated with an oxygen/CO2 (95/5) mixture.
Variations in the tension of the diaphragm are recorded with an initial preload of several grams.
After a relaxation period of 30 min, the diaphragm is indirectly stimulated by means of the phrenic nerve.
On each preparation, the effect of the test compound was evaluated on contractions induced by indirect stimulation via stimulation on the phrenic nerve (0.1 to 0.5 volts, 0.3 ms, 0.1 Hz). Alverine, known as a muscle-relaxing compound with antiwrinkle effect according to application FR-2 798 590, is used as control.

[2] = Antiwrinkle effect in vivo in humans
Excerpt: as §1

In the case of `CN1C(=O)CN=C(c2ccccc2)c2cc(Cl)ccc21` [diazepam], the “activity in the nerve/muscle junction test” value [1] is reported as “active” and the “antiwrinkle activity in vivo in humans” value [2] is reported as “active”.
